Results published in patent US20060058243A1, “Methods and compositions for treating diabetes mellitis” (priority 2002, published 2006).
“Also recorded” adds a separate entry of the source.

Columns and labels:
3T3-L1 adipocytes [1] = experiment: Glucose transport stimulatory (GTS) activity, 2-deoxy-D-[3H]glucose uptake; type: cell-based; details: for GTS activity (in words): 3T3-L1 cell system; for glucose uptake by the cells: 20-40 μM
Description: (§1) PGG, either as a mixture or as single isomer (α or β), is added to either adipocytes (A) or preadipocytes (B). GTS activity (A) and AD activity (B) of PGG are measured by ^3H-glucose uptake. GLUT4 is not expressed in preadipocytes, so glucose uptake can be used as an indirect measurement of adipocyte differentiation.
Glucose uptake activity in cells may be analyzed by measuring the uptake of 2-deoxy-D-[^3H] glucose using a standard assay. Confluent 3T3-L1 adipocytes grown in 12-well plates are washed twice with serum-free DMEM and incubated with 1 mL of the same medium at 37° C. for 2 h. The cells are washed 3 times with Krebs-Ringer-Hepes (KRP) buffer and incubated with 0.9 mL KRP buffer at 37° C. for 30 min. […] Glucose uptake is initiated by addition of 0.1 mL KRP buffer and 37 MBq/L 2-deoxy-D-[^3H] glucose and 1 mmol/L glucose as final concentrations. After 10 min, glucose uptake is terminated by washing the cells 3 times with cold PBS. The cells are lysed with 0.7 mL of 1% Triton X-100 at 37° C. for 20 min. The radioactivity retained by the cell lysates is determined by a scintillation counter. The dosage that induces the maximal glucose uptake can be selected among the experimental samples.
3T3-L1 adipocytes were purchased from ATCC, and maintained and passed as preadipocytes in DMEM supplemented with 10% calf serum in a 37° C. incubator with 10% CO2 as required by the cells. The cells were induced to differentiate into adipocytes by addition of MDI induction cocktail as described in Liu, F., Kim, J., Li, Y., Liu, X., Li, J. & Chen, X. (2001) An extract of Lagerstroemia speciosa L. has insulin-like glucose uptake-stimulatory and adipocyte differentiation-inhibitory activities in 3T3-L1 cells. J. Nutrition 131:2242-224, which is specifically incorporated herein by reference. Varying amounts of α-PGG and β-PGG were then added to the medium and the amount of glucose taken up by control and treated cells determined using a standard glucose uptake assay, as described in Liu et al. As shown in FIG. 2A chemically synthesized and plant derived β-PGG have similar glucose transport stimulatory (GTS). The GTS activity of α-PGG is consistently 10-20% higher than that of β-PGG (FIG. 2).
Confluent 3T3-L1 adipocytes grown in 12-well plates were washed twice with serum-free DMEM and incubated with 1 mL of the same medium at 37° C. for 2 h. The cells were washed 3 times with Krebs-Ringer-Hepes (KRP) buffer and incubated with 0.9 mL KRP buffer at 37° C. for 30 min. Compounds listed in the table below were then added at 20-40 μM (final concentration?) and adipocytes were incubated at 37° C. for 15 min. Glucose uptake was initiated by addition of 0.1 mL KRP buffer and 37 MBq/L 2-deoxy-D-[3H] glucose and 1 mmol/L glucose as final concentrations. After 10 min, glucose uptake was terminated by washing the cells 3 times with cold PBS. The cells were lysed with 0.7 mL of 1% Triton X-100 at 37° C. for 20 min. The radioactivity retained by the cell lysates is determined by a scintillation counter.

3T3-L1 preadipocytes [2] = experiment: Clonal expansion / cell proliferation assay by LDH activity; type: cell-based; details: in the presence of MDI, FIG. 10
Description: Preadipocytes were induced to undergo clonal expansion by MDI, or α-PGG, or β-PGG in the presence of MDI. 24 or 48 hrs after induction, the media was removed and the cells were lysed. The […] (LDH) activity of the cell lysates was measured by LDH kit. Cell growth media were also collected and their LDH activity from dead cells was also measured (not shown on this graph). LDH activity is a constant per cell in a given cell type, the LDH activity measured is proportional to the number of cells in the samples.
A cell proliferation assay was used to determine if PGG inhibits adipocyte differentiation by blocking clonal expansion. […] The basis for the difference between the anomers in clonal expansion and differentiation is not known.

[3] = biological target: T1, insulin receptor IR in 3T3-L1 adipocytes (Mus musculus, UniProt P15208); experiment: 125I-insulin binding in the presence of PGG; details: FIG. 4
T1 construct: host or cells: 3T3-L1 adipocytes
T1 sequence (P15208 28-748 limits assumed): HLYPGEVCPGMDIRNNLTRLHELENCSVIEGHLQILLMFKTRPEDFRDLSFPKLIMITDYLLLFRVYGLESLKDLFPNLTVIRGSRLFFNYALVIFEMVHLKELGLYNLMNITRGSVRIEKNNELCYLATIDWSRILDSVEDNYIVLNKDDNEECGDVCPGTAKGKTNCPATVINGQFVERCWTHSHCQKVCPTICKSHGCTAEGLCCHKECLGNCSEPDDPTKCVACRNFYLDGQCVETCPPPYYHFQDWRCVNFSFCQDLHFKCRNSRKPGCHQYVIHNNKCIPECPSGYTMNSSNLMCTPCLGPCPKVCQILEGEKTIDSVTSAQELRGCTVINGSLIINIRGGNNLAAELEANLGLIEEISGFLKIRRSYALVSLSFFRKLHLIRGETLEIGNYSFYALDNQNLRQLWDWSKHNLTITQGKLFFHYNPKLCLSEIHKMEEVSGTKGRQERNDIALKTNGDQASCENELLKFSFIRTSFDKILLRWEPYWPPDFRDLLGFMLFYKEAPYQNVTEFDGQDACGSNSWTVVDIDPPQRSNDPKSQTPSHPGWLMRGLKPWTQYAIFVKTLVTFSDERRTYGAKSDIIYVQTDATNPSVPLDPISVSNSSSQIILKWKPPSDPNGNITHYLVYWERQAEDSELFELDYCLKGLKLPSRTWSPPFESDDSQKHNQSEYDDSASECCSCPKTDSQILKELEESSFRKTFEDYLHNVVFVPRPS
T1 sequence (P15208 753-1372 limits assumed): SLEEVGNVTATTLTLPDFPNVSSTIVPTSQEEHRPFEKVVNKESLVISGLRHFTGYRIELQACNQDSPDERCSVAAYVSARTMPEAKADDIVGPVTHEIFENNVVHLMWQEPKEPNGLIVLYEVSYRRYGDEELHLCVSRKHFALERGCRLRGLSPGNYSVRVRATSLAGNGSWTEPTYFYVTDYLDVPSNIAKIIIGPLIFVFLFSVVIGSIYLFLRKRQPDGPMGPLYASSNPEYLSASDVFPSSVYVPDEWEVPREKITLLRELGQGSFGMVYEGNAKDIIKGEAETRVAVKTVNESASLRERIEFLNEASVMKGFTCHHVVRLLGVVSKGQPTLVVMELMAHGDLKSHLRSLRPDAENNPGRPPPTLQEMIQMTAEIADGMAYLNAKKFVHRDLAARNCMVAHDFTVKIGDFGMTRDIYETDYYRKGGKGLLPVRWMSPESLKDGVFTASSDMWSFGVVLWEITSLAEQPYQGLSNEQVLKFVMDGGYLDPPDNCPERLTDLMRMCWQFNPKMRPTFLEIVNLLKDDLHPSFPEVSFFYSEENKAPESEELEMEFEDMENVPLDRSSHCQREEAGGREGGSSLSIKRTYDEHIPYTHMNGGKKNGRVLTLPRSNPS

gelatin, BSA, ovalbumin = experiment: Competitive protein binding assay with 125I BSA tracer; details: FIG. 5
Description: A fixed quantity of ^125I BSA was incubated with PGG in the presence of variable amount of either cold gelatin, or BSA, or ovalbumin. Bound was separated from free by precipitation and was expressed as the % bound in the absence of competitor.
A competitive binding assay using radiolabeled bovine serum albumin (BSA) as the tracer was used to determine whether PGG can bind proteins selectively. The relative affinities of three standard proteins for PGG differ from one another by at least 10-fold (FIG. 5), and the difference of the binding affinities of PGG to gelatin and ovalbumin is more than 100-fold.

Akt in 3T3-L1 adipocytes = experiment: Western blot of Akt phosphorylation; type: cell-based; details: PGG 15 μM and 30 μM, FIG. 7
Text: Differentially treated adipocytes were lysed, the cell proteins analyzed by SDS-PAGE.

3T3-L1 preadipocytes [4] = experiment: Adipocyte differentiation (AD) of preadipocytes, MDI induction, Oil Red O staining and glucose uptake; type: cell-based
Description: as §1
Ten days after induction, the cells were stained with Oil Red 0 and photographed at magnification X200. Only those cells that contain fat vesicles (triglyceride) can be stained.
After about 10 days MDI induces differentiation, which is clearly visible as the change from fibroblast-like preadipcytes to round-shaped, fat vesicle-containing adipocytes.
3T3-L1 adipocytes were purchased from ATCC, and maintained and passed as preadipocytes in DMEM supplemented with 10% calf serum in a 37° C. incubator with 10% CO2 as required by the cells. To test the effect of PGG on adipogenesis, the preadipocytes were incubated either with a differentiation-induction cocktail comprised of 3-isobutyl-1-methylxanthine, […], a cocktail comprised of 3-isobutyl-1-methylxanthine, dexamethasone (MD) and PGG; or with MDI plus PGG.
In order to study the mechanism by which PGG inhibits 3T3-L1 preadipocyte differentiation, we used gene expression studies. This strategy allows us to determine whether PGG specifically acts on genes that participate in the differentiation process. […] After about 10 days MDI induces differentiation, which is clearly visible as the change from fibroblast-like preadipcytes to round-shaped, fat vesicle-containing adipocytes (FIG. 8 middle).

[5] = tested on: PPARγ and C/EBPα gene expression in 3T3-L1 preadipocytes; experiment: Northern blot analysis of differentiation gene expression; type: cell-based; details: FIG. 9
Description: FIG. 9. Northern blot analysis of PPARγ and C/EBPα gene expression in 3T3-L1 preadipocytes. Differentially treated preadipocytes were analyzed for their mRNA expression at various times post treatment. Lane 1: No treatment; Lane 2=MDI; Lane 3=30 μM PGG+MDI; Lane 4=30 μM of PGG alone. Times=times post treatment when mRNA was isolated.
At various times the treated cells were harvested, the total RNA was isolated, and expression was analyzed by Northern blots using probes complementary to various genes that are involved in the differentiation process.

ob/ob mice = experiment: Glucose tolerance test in ob/ob mice; type: in vivo; details: ob/ob mice
Description: FIG. 11. Effect of PGG on blood glucose levels in db/db and ob/ob mice. Various doses of α-PGG were orally delivered without glucose to db/db mice(A) or with glucose to ob/ob mice (B) mice. At different times post the delivery, glucose was determined in samples from tail blood.
FIG. 12. PGG protects ob/ob mice from hyperglycemia immediately after glucose challenge and hypoglycemia several days after the challenge. At various time points after the glucose challenge, blood glucose levels were measured in tail blood.
To determine if α-PGG is also effective in improving glucose tolerance in diabetic and obese mice, a glucose tolerance test was performed using ob/ob mice. Glucose or glucose plus α-PGG were orally delivered into male ob/ob mice, and blood glucose levels were measured at various times post glucose/PGG administration.
A single high does of glucose in ob/ob mice can be fatal, either because of the very high levels of blood glucose levels […] after the glucose challenge or because of the abnormally low glucose levels 2-3 days after the glucose challenge. […] Although the protection mechanisms are unknown at this time, it is very likely that α-PGG protected the ob/ob mice not only by its GTS activity, but also some other activity such as AD-related activity.

Normal (healthy) mice = experiment: Blood glucose in normal mice at basal glucose level (hypoglycemia test); details: given 120 min after 40 mg oral glucose; PGG oral, insulin intraperitoneal
Description: Normal (healthy) mice were orally fed with 40 mg of glucose at time zero. […] Thus, PGG reduces blood glucose level when it is higher than normal.

3T3-L1 adipocytes [6] = experiment: Glucose transport induced by insulin or PGG in the presence of insulin-signaling pathway inhibitors; type: cell-based; details: FIG. 6
Description: The glucose transport activity of the treated cells was measured by ^3H glucose taken up by the cells. HNMPA-(AM)3 inhibits IR Tyr kinase activity, Cytochalasin B inhibits GLUT4, Wortmannin inhibits PI-3K, respectively.

Compound: O=C(O[C@@H]1Cc2c(O)cc(O)cc2O[C@@H]1c1cc(O)c(O)c(O)c1)c1cc(O)c(O)c(O)c1 [EGCG, reference compound]
- GTS activity (in words) (3T3-L1 adipocytes [1]): no activity

Compound: O=C(O[C@H]1OC[C@@H](OC(=O)c2cc(O)c(O)c(O)c2)[C@H](OC(=O)c2cc(O)c(O)c(O)c2)[C@H]1OC(=O)c1cc(O)c(O)c(O)c1)c1cc(O)c(O)c(O)c1 [α-XylG4, Tetrakis-O-(3,4,5-trihydroxybenzoyl) -α-D-xylopyranose]
- glucose uptake by the cells (3T3-L1 adipocytes [1]; 3T3-L1 adipocytes): increased glucose uptake

Compound: O=C(OC[C@H]1O[C@@H](OC(=O)c2ccc(O)c(O)c2)[C@H](OC(=O)c2ccc(O)c(O)c2)[C@@H](OC(=O)c2ccc(O)c(O)c2)[C@@H]1OC(=O)c1ccc(O)c(O)c1)c1ccc(O)c(O)c1 [β-Glc(G-3,4-OH2)5, Pentakis-O-(3,4-dihydroxybenzoyl) -β-D-glucopyranose]
- glucose uptake by the cells (3T3-L1 adipocytes [1]; 3T3-L1 adipocytes): increased glucose uptake

Compound: O=C(OC[C@H]1O[C@@H](OC(=O)c2cc(O)c(O)c(O)c2)[C@H](OC(=O)c2cc(O)c(O)c(O)c2)[C@@H](OC(=O)c2cc(O)c(O)c(O)c2)[C@@H]1OC(=O)c1cc(O)c(O)c(O)c1)c1cc(O)c(O)c(O)c1 [β-PGG, 1,2,3,4,6-penta-O-galloyl-β-D-glucose]
- GTS activity, synthesized versus plant derived β-PGG (3T3-L1 adipocytes [1]; 3T3-L1 adipocytes, FIG. 2A): similar
- first round of clonal expansion (3T3-L1 preadipocytes [2]): not inhibited
- second round of clonal expansion (3T3-L1 preadipocytes [2]): completely inhibited

Compound: O=C[C@H](OC(=O)c1cc(O)c(O)c(O)c1)[C@@H](OC(=O)c1cc(O)c(O)c(O)c1)[C@H](OC(=O)c1cc(O)c(O)c(O)c1)[C@@H](COC(=O)c1cc(O)c(O)c(O)c1)OC(=O)c1cc(O)c(O)c(O)c1 [PGG, penta-O-galloyl-D-glucose]
- GTS activity (in words) (3T3-L1 adipocytes [1]): high activities
- competition with / displacement of insulin at the insulin binding site on IR ([3]; 8 pM 125I-insulin, 0.1 to 20 μM PGG, overnight 4° C.): does not compete with insulin; also recorded: unable to displace insulin from IR
- insulin binding at higher PGG concentrations ([3]; PGG above 20 μM): Insulin binding increased
- difference of binding affinities of PGG to gelatin and ovalbumin (gelatin, BSA, ovalbumin): more than 100 fold
- difference between relative affinities of three standard proteins for PGG (gelatin, BSA, ovalbumin; gelatin, BSA, ovalbumin): at least 10 fold
- phosphorylation of Akt (Akt in 3T3-L1 adipocytes): phosphorylated
- induction of differentiation when insulin in MDI was substituted by PGG (3T3-L1 preadipocytes [4]; MD plus PGG, FIG. 2B): failed to induce differentiation
- differentiation of preadipocytes treated with MDI plus compound (3T3-L1 preadipocytes [4]; about 10 days, 30 μM PGG, FIG. 8): retain their fibroblast-like morphology and remain fat vesicle-free
- expression of genes PPAR-γ, c/EBP induced by MDI ([5]; 30 μM PGG+MDI): completely abolished
- β-actin expression [5]: not significantly affected
- toxic effects (ob/ob mice): No PGG-related toxic effects were observed
- hypoglycemia / blood glucose below basal levels (Normal (healthy) mice): does not further reduce bood glucose levels beyond normal or basal levels

Compound: C=C1[C@@H](C)[C@H]2[C@H](Cc3ccccc3)NC(=O)[C@]23OC(=O)/C=C/[C@H](O)CCC[C@@H](C)C/C=C/[C@H]3[C@@H]1O [cytochalasin B]
- inhibition of the GTS activity mediated by either insulin or PGG (3T3-L1 adipocytes [6]): completely inhibited

Compound: O=C(OC[C@H]1OC(OC(=O)c2cc(O)c(O)c(O)c2)[C@H](OC(=O)c2cc(O)c(O)c(O)c2)[C@@H](OC(=O)c2cc(O)c(O)c(O)c2)[C@H]1OC(=O)c1cc(O)c(O)c(O)c1)c1cc(O)c(O)c(O)c1 (stereo partly shown) [PGGal, Pentagalloyl galactose]
- GTS activity relative to PGG (3T3-L1 adipocytes [1]; 3T3-L1 cells): 60-70%

Compound: pentagalloyl deoxynojirimycin [PG-DJM]
- GTS activity (in words) (3T3-L1 adipocytes [1]): no detectable GTS activity

Compound: insulin: hormone, positive control [reference compound]
- hypoglycemia / blood glucose below basal levels (Normal (healthy) mice): resulted in a hypoglycemic condition
